According to patent US11433138B2, “Nanocarriers and intracellular delivery of same” (Georgia Tech Research Corporation, priority 2016, dated 2022):

Experiments:
mouse IgG (IgGM) = experiment: Binding kinetics to biotinylated IgG immobilized on optical biosensors (mouse IgG)
Experimental: (§1) Biotinylated IgG was immobilized onto optical biosensors to enable high throughput kinetic analyses in microplate format. The IgG-binding behavior to the Hex nanocarrier in comparison to soluble SPAB at neutral and acidic pH was assessed.

rabbit IgG (IgGR) = experiment: Binding kinetics to biotinylated IgG immobilized on optical biosensors (rabbit IgG)
Experimental: as §1

domain B of staphylococcal protein A [SPAB]
stronger binding at neutral pH compared to pH 5.0 (mouse IgG (IgGM)): 17 fold
affinities towards mouse IgG (in words) (mouse IgG (IgGM); neutral pH and pH 5.0): nanomolar
Kd (mouse IgG (IgGM); pH 5.0): 470 ± 19 nM
Kd (mouse IgG (IgGM); pH 7.4): 28.3 ± 2.8 nM
Kd (rabbit IgG (IgGR); pH 5.0): 255 ± 17 nM
Kd (rabbit IgG (IgGR); pH 7.4): 53 ± 2 nM
